The numbers were not newly measured in US11337989B2, “Compositions and methods for inhibiting inflammation and diseases using an alginic acid-based antimicrobial compound” (Evofem, Inc., priority 2013, dated 2022), which cites them from elsewhere.

Data set [1] concerns vaginal and cervical cells.
For data set [2] the following is noted: at an acidic pH.
In data set [3] the test system is HIV. The conditions noted are these: compared with D or racemic lactic acid; Purcell et al. 2012.
The subject of data set [4] is bacteria associated with bacterial vaginosis. The conditions noted are these: in vaginal fluid; O'Hanlon et al. 2011.

For nonoxynol-9 [N-9], the “toxicity to vaginal and cervical cells” value in data set [1] is given as “toxic”.

For the molecule `C[C@H](Cn1cnc2c(N)ncnc21)OCP(=O)(O)O` [Tenofovir, 1-(6-aminopurin-9-yl)propan-2-yloxymethylphosphonic acid], the water solubility result in data set [2] is “not water soluble”. On to `C[C@H](O)C(=O)O` [L form of lactic acid, L-(+)-lactic acid], for which the “potency in inactivating HIV” value in data set [3] was “more potent”. Take `CC(O)C(=O)O` (stereo not shown) [lactic acid]: the “suppression of bacteria associated with bacterial vaginosis” value in data set [4] was “suppressed”.
